Results on 49 molecules are retold here after the supplement of paper PMC10290057.

Where a name gives a salt, the structure may show the parent alone.
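Also: Luminescence-based viability readout, five doses per compound, normalized against on-plate DMSO and empty-well controls, followed by dose-response curve fitting for every drug.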

The test relates to HCT116. Nature of the test: efficacy (fitted maximal change in viability relative to DMSO control); higher = less cytotoxic (negative = loss of viability). Particulars: 48 h.
For the molecule `CC(C)C1CCC(C(=O)N[C@H](Cc2ccccc2)C(=O)O)CC1` (some centres undefined) [Nateglinide], the efficacy is -11%.
On to `CN1C(=O)N[C@H](Cc2c[nH]c3c(Cl)cccc23)C1=O` [Necrostatin 2], for which the efficacy was found to be 15%.
Take `CN1C(=O)C(Cc2c[nH]c3ccccc23)NC1=S` (centres undefined) [Necrostatin-1]: the efficacy was -7.49%.
Turning to `Cc1cccc(C)c1NC(=O)CN1CCCC1=O` [Nefiracetam], the efficacy is -20.6%.
For `NCC/1=C/NC(=S)N1[C@H]2CCC3=C(F)C=C(F)C=C3C2` [Nepicastat hydrochloride], the efficacy is -46.6%.
With `CNC(=O)c1c(-c2ccc(F)cc2)oc2cc(N(CCO)[S+](C)(=O)[O-])c(C3CC3)cc12` [Nesbuvir], the efficacy was -8.31%.
Take `CN1C(=O)/C=C(/NCCN(CCO)CCCC2=CC=C(C=C2)[N+]([O-])=O)N(C)C1=O` [Nifekalant]: the efficacy is -10%.
As for `CC1(C)NC(=O)N(c2ccc([N+](=O)[O-])c(C(F)(F)F)c2)C1=O` [Nilutamide], the efficacy was -35.5%.
On to `C[S+](=O)([O-])Nc1ccc([N+](=O)[O-])cc1Oc1ccccc1` [Nimesulide], for which the efficacy is -15.6%.
The same measure for `O=[N+]([O-])c1cncn1CCN1CCOCC1` [Nimorazole]: -10.3%; for `NC[C@H](O)c1ccc(O)c(O)c1` [Noradrenaline bitartrate monohydrate]: 10.7%.
As to `CCN1\C=C(\C(O)=O)C(=O)C2=C1C=C(N3CCNCC3)C(=C2)F` [Norfloxacin], the efficacy stood at 9.53%.
In the case of `CO[C@@H]1[C@@H](OC(N)=O)[C@@H](O)[C@H](OC2=CC=C3\C(=C(NC(=O)C4=CC=C([O-])C(=C4)CC=C(C)C)/C(=O)OC3=C2C)O)OC1(C)C` [Novobiocin sodium], the efficacy is 3.79%.
For the molecule `Nc1nc(OCc2ccccc2)c2nc[nH]c2n1` [O6-Benzylguanine], the efficacy was -34.3%.
As to `CN1CCN(CC1)C2=C(NC(=O)C/3=C/NC(=O)/C=C3C(F)(F)F)C=C(C=C2)C4=CC(=CC=C4)CN5CCOCC5` [OICR-9429], the efficacy was -23.2%.
For the molecule `CC#CC(=O)N1CC[C@@H](n2c(=O)n(-c3ccc(Oc4ccccc4)cc3)c3c(N)ncnc32)C1` [ONO-4059 (GS-4059)], the efficacy is -53.5%.
Take `C=CC(=O)N1CCC[C@H](n2c(=O)n(-c3ccc(Oc4ccccc4)cc3)c3c(N)ncnc32)C1` [ONO-4059 analog]: the efficacy is -67.4%.
As for `CCOCOC[C@H](C[C@H](C)C(=O)NO)NC(=O)c1ccc(Oc2ccccc2)cc1` [ONO-4817], the efficacy was -33.1%.
In the case of `CN(C)CCNC(=O)COc1c2cccc1Cc1cccc(c1OCC(=O)NCCN(C)C)Cc1cccc(c1OCC(=O)NCCN(C)C)Cc1cccc(c1OCC(=O)NCCN(C)C)C2` [OTX-008], the efficacy was -46.7%.
With `CCC(CCCC)COC(=O)C(\C#N)=C(\c1ccccc1)c2ccccc2` (centres undefined) [Octocrylene], the efficacy is -31.5%.
Take `C[C@@H](O)[C@@H]1NC(=O)[C@H](CCCCN)NC(=O)[C@@H](Cc2c[nH]c3ccccc23)NC(=O)[C@H](Cc2ccccc2)NC(=O)[C@@H](NC(=O)[C@H](N)Cc2ccccc2)CSSC[C@@H](C(=O)N[C@H](CO)[C@@H](C)O)NC1=O` [Octreotide]: the efficacy is 9.15%.
As to `CC(C)(F)C[C@H](N[C@@H](c1ccc(-c2ccc([S+](C)(=O)[O-])cc2)cc1)C(F)(F)F)C(=O)NC1(C#N)CC1` [Odanacatib], the efficacy is -28.3%.
With `CC1COC2=C3N1\C=C(C(O)=O)/C(=O)C3=CC(=C2N4CCN(C)CC4)F` (centres undefined) [Ofloxacin], the efficacy was -9.68%.
With `N[C@@H](CCC(=O)O)C(=O)N[C@@H](Cc1c[nH]c2ccccc12)C(=O)O` [Oglufanide] the figure was -13.7%.
In the case of `FC1=C(C=C(C/C2=N/NC(=O)C3=C2C=CC=C3)C=C1)C(=O)N4CCN(CC4)C(=O)C5CC5` [Olaparib], the efficacy was -38.8%.
The same measure for `CCCc1nc(C(C)(C)O)c(C(=O)O)n1Cc1ccc(-c2ccccc2-c2nn[nH]n2)cc1` [Olmesartan]: -6.46%; for `CN(C)CC/C=C1/c2ccccc2COc2ccc(CC(=O)O)cc21` [Olopatadine hydrochloride]: 5.52%.
With `C\C1=C(\SSC1=S)C2=CN=CC=N2` [Oltipraz] the figure was -26.5%.
As to `COC(=O)N1CCN(Cc2cccc(NC(=O)Nc3ccc(C)nc3)c2F)CC1` [Omecamtiv mecarbil], the efficacy is -28.6%.
For `COc1ccc2[nH]c([S+]([O-])Cc3ncc(C)c(OC)c3C)nc2c1` (centres undefined) [Omeprazole], the efficacy was -17.5%.
The same measure for `CN(CC#C)C/C1=C/C2=CC=CC=C2OC3=CC=CC=C13` [Omigapil]: -34.5%.
With `CCCCCCCCCCCC(CC1OC(=O)C1CCCCCC)OC(=O)C(CC(C)C)NC=O` (centres undefined) [Orlistat] the figure was -6.83%; with `OC(=O)C/1=C/C(=O)NC(=O)N1` [Orotic acid], -16.5%.
Turning to `CNC(=O)c1ccc2cc(C3(O)CCn4cncc43)ccc2c1` (centres undefined) [Orteronel], the efficacy is -5.91%.
In the case of `CCOC(=O)\C1=C\[C@@H](OC(CC)CC)[C@H](NC(C)=O)[C@@H](N)C1` [Oseltamivir phosphate], the efficacy came to 13%.
Consider `OCCOc1ccc(/C(=C(/CCCl)c2ccccc2)c2ccccc2)cc1` [Ospemifene], for which the efficacy is -49.5%.
For `C[C@]12COC(=O)C[C@@H]1CC[C@@H]1[C@@H]2CC[C@@]2(C)[C@H]1CC[C@]2(C)O` [Oxandrolone], the efficacy was -21.6%.
With `O=C1CCC[C@@H]2[C@H]3CCC[N+]4([O-])CCC[C@@H](CN12)[C@@H]34` (some centres undefined) [Oxymatrine], the efficacy is -29.8%.
As to `CC1=CC(=C(O)C(=C1C\C2=N\CCN2)C)C(C)(C)C` [Oxymetazoline hydrochloride], the efficacy is -19.1%.
In the case of `CC(C)Oc1ccc(-c2nc(-c3cccc4c3CC[C@@H]4NCCO)no2)cc1C#N` [Ozanimod], the efficacy is -31.3%.
For `O=[N+]([O-])c1cn2c(n1)OC[C@@H](OCc1ccc(OC(F)(F)F)cc1)C2` [PA-824], the efficacy was -19.8%.
As to `COc1cc(OCc2cccc(-c3ccccc3)c2C)cc(OC)c1CN1CCCC[C@H]1C(=O)O` [PD-1/PD-L1 Inhibitor 1], the efficacy was -62%.
With `FC1=CC=C(CN2\C=C/C=C(/C(=O)N[C@@H](COC3=CC4=C(NC(=O)N4)C=C3)C5=CC=CC=C5)C2=O)C=C1F` [PDPK1 Inhibitor], the efficacy is -72.1%.
Regarding `O=C(CCN1CCN(C(=O)OCc2cc(Cl)cc(Cl)c2)CC1)c1ccc2[nH]c(=O)oc2c1` [PF-8380], the efficacy was -11.3%.
With `O=C(/C=C/N1C[C@H]2C[C@@H]1CN2c1ccccn1)c1ccccc1O` [PFI-3], the efficacy is -9.44%.
In the case of `COc1ccccc1C(=O)Nc1cc2c(cc1N1CCCC1)n(C)c(=O)n2C` [PFI-4], the efficacy is -64%.
`CCCCCCCCCCCCc1ccc([S+](=O)([O-])Nc2nncs2)cc1` [PHT-427]: the efficacy was -13.9%.
Turning to `CC1=C(C=CC=C1)N2\C(=N/C3=C(C(=CC=C3)C)C2=O)C[N]4N=CC5=C4N=CN=C5N` [PIK-293], the efficacy is -6.78%.
As to `O=C(CCCc1ccc2cccnc2n1)NCc1cc(-c2ccc(F)c(C(F)(F)F)c2)no1` [PRP003-062], the efficacy was -32.2%.
